Results from PubChem BioAssay (NCI).
Values joined by “and” are separate entries in the source; they are usually repeats but may differ in a detail not shown here. Equal entries are not always repeated.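 Exposure lasted 48 hours, with cells grown in 96-well plates and compounds tested at five concentrations. GI50 is the concentration that inhibits growth by half. TGI: concentration producing complete growth inhibition.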

Experiments:
Assay in all cases: NCI tumour cell line growth inhibition, 48 h
[1] = system: HL-60(TB) leukemia
[2] = system: CCRF-CEM leukemia
[3] = system: MOLT-4 leukemia
[4] = system: SNB-75 CNS
[5] = system: OVCAR-4 ovarian
[6] = system: PC-3 prostate
[7] = system: NCI-H226 lung
[8] = system: OVCAR-3 ovarian
[9] = system: SK-OV-3 ovarian
[10] = system: SN12C renal

SMILES	TGI [1]	TGI [2]	TGI [3]	TGI [4]	TGI [5]	TGI [6] [µM]	TGI [7] [µM]	TGI [8] [µM]	TGI [9]	TGI [10]	GI50 [1] [µM]	GI50 [2] [µM]	GI50 [3] [µM]	GI50 [4] [µM]	GI50 [5] [µM]	GI50 [6] [µM]	GI50 [7] [µM]	GI50 [8] [µM]	GI50 [9] [µM]	GI50 [10] [µM]
Cn1nnnc1N/N=C/c1ccccc1	> 10 µM	> 10 µM	> 10 µM	> 10 µM	> 10 µM	> 10	> 10	> 10	> 10 µM	> 10 µM	–	–	–	–	–	–	–	–	–	–
C=CC[P+](c1ccccc1)(c1ccccc1)c1ccccc1	6.03 µM	> 100 µM	> 100 µM	57.9 µM	> 100 µM	33.5	> 100	> 100	> 100 µM	> 100 µM	1.58	3.4	5.07	3.58	2.84	1.78	5.88	1.99	19.2	6.36
O=C(Nc1ccc(Cl)cc1F)c1cc(I)ccc1O	6.87 µM	9.77 µM	6.89 µM	2.82 µM	15.5 µM	6.36	7.14	16.1	1.24 µM	7.62 µM	1.66	2.78	2.41	0.187	2.04	2.07	1.94	1.66	0.132	1.01
C=C(C)C1CC2(C)C(C)CC(OC(=O)/C(C)=C\C)CC2C(OC(=O)/C(C)=C\C)C1O (stereo not given)	43.6 µM	45.8 µM	60.3 µM	> 100 µM	> 100 µM	> 100	> 100	–	> 100 µM	> 100 µM	–	–	–	–	–	–	–	–	–	–
O=C(Nc1cccc(Oc2nnc(Cl)c3ccccc23)c1)Nc1ccc(Cl)c(C(F)(F)F)c1	6.06 µM	17.5 µM	4.18 µM	5.63 µM	6.01 µM	2.51	7.2	4.46	6.7 µM	3.85 µM	0.372	0.208	0.494	1.61	0.593	0.545	2.14	0.773	2.66	0.941
COC1CCC(O)C(/C=C/[N+](=O)[O-])C1 (stereo not given)	5.29 µM	> 100 µM	6.55 µM	21.5 µM	28.4 µM	6.01	5.96	22.3	22.6 µM	9.05 µM	–	–	–	–	–	–	–	–	–	–
Oc1c(CN2CCCC2)cc(COCc2ccc(Br)cc2)c2cccnc12	1.43 µM	2.65 µM	2.67 µM	11.7 µM	3.02 µM	5.97	2.96	1.87	2.84 µM	5.86 µM	0.355	0.443	0.495	1.33	0.508	1.01	1.05	0.413	0.594	0.989
O=[N+]([O-])c1ccc2c(N3CCC(CCCC4CCN(c5ncnc6cc([N+](=O)[O-])ccc56)CC4)CC3)ncnc2c1	> 100 µM	> 100 µM	> 100 µM	> 71.2 µM	> 100 µM	> 100	> 75.3	> 100	> 100 µM	> 100 µM	17.8	44.7	24.8	> 39.6	21.5	8.96	9.47	21.6	> 46.3	> 55.9
O=S(=O)(O)c1ccc(-c2nnc(-c3ccccn3)nc2-c2ccc(S(=O)(=O)O)o2)o1	> 100 µM	–	> 100 µM	> 100 µM	> 100 µM	> 100	> 100	> 100	> 100 µM	> 100 µM	–	–	–	–	–	–	–	–	–	–
CNC(=O)c1ccc2cc(C3(O)CCn4cncc43)ccc2c1 (stereo not given)	> 100 µM	> 100 µM	> 100 µM	> 100 µM	> 100 µM	> 100	> 100	> 100	> 100 µM	> 100 µM	> 73.5	> 100	> 100	> 100	> 100	> 100	> 100	> 100	> 100	> 100
Cc1ccc(C)c(NC(=O)NCc2ccc(Cl)cc2)c1	> 100 µM	> 27.6 µM	> 36.2 µM	6.26 µM	> 100 µM	> 100	98.8	> 100	52.7 µM	> 100 µM	–	–	–	–	–	–	–	–	–	–
COc1ccc(-c2nn(-c3cccc(NC(=O)c4ccc5c(c4)OCCO5)c3)cc2-c2ccncc2)cc1Cl	5.96 µM	10.3 µM	25.7 µM	3.5 µM	> 100 µM	18.1	> 100	–	> 100 µM	> 100 µM	2	1.68	2.46	0.602	4.39	2.12	3.3	–	3.82	2.92
CCN1C(=O)NC(=O)C(C)(N2C(=O)c3c(F)c(F)c(F)c(F)c3C2=O)C1=O (stereo not given)	3.49 µM	4.54 µM	10.1 µM	11.1 µM	6.31 µM	10.5	36.7	3.22	24.6 µM	14.6 µM	1.61	1.89	2.44	2.96	2.44	3.09	9.58	1.71	10.1	3.99
Cc1cnc(/C=N\NC(N)=S)c2cccc(N)c12	3.18 µM and 2.83 µM	> 24 µM	> 100 µM	> 27 µM and 9.48 µM	> 100 µM	> 100	> 100	> 100	> 100 µM	> 26.5 µM and 4.35 µM	0.752	1.82	1.5	1.35	3.4	> 22.7	2.39	3.03	3.14	1.51
CN(N=O)C(=O)N[C@@H](C=O)[C@@H](O)[C@H](O)[C@H](O)CO	> 750 µM	522 µM and > 750 µM	574 µM and > 750 µM	> 750 µM	609 µM and > 750 µM	> 750	> 750	670	622 µM and > 750 µM	603 µM and > 750 µM	> 750	> 750	> 750	696	> 750	–	> 750	–	> 750	> 750
CC(=O)O[C@H](C[C@H](C(C)C)N(C)C(=O)[C@@H](NC(=O)[C@H]1CCCCN1C)C(C)C)c1nc(C(=O)N[C@@H](Cc2ccccc2)C[C@H](C)C(=O)O)c(C(C)C)s1	< 0.00333 µM	> 33.3 µM	> 33.3 µM	29.1 µM	> 33.3 µM	> 33.3	0.382	0.00598	> 33.3 µM	> 33.3 µM	< 0.00333	< 0.00333	< 0.00333	< 0.00333	0.00673	< 0.00333	0.00335	< 0.00333	< 0.00333	< 0.00333
C/C(=N\N=C(\[Se])N1CCN(c2ccccn2)CC1)c1ccccn1	–	–	–	17.5 µM	3.31 µM	14.2	14.3	–	9.82 µM	21.3 µM	0.00236	–	0.00298	–	0.00554	0.334	–	–	–	0.375
CCOC(=O)c1c2c(n(Cc3ccccc3)c1C)-c1ccccc1C(=O)C2=O	> 100 µM	13.5 µM	–	24.7 µM	25.4 µM	19.8	–	29.3	37.2 µM	41.6 µM	79.4	3.36	–	10.7	10.9	6.83	–	12.2	19.8	15.7
COc1ccc2c(c1)C(=O)c1c-2c(Nc2ccc(C(C)=O)cc2)nc2ccccc12	> 100 µM	> 100 µM	> 100 µM	> 100 µM	> 100 µM	> 100	> 100	> 100	–	> 100 µM	> 100	> 100	> 100	26.1	58.3	34.3	38.3	> 100	–	33.4
CCCC[N+](CCCC)=c1ccc2nc3c(C)cc(N(CC)CC)cc3sc-2c1	0.773 µM	3.42 µM	3.14 µM	1.1 µM	1.11 µM	1.55	1.72	1.15	1.05 µM	–	0.0995	0.0923	0.0958	0.229	0.0517	0.0583	0.265	0.12	0.28	–
Cc1cc(C2=NNC(=O)Cc3cc4c(cc32)OCCO4)cc(C)c1N	54.5 µM	–	> 100 µM	4.32 µM	> 100 µM	> 100	> 100	5.6	23.6 µM	> 100 µM	1.59	–	3.97	1.25	6.4	2.73	8.9	0.892	2.44	6.17
